Laboratory results taken from patent publication US11773078B2, “Furin inhibitors” (Glaxosmithkline Intellectual Property Development Limited, priority 2018, dated 2023).

Experiments:
[1] = molecular target: T1, furin (endogenous protease) in U20S cells (Homo sapiens, UniProt P09958); assay: Furin cell-based assay (image-based, Golgi-targeted GFP with BMP10 furin/PCSK cleavage site); details: 24-hour incubation, read-out: furin golgi cell pXC50 (converted);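 note: Read-out is mean GFP fluorescence of Golgi puncta per cell by high-content imaging, retained when furin inhibited, over an eleven-point 0.00017–10 µM series, four-parameter fit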
T1 construct: the endogenous protease cleaves GFP; endogenous in cells; host or cells: U2OS cells transduced with a BacMam reporter

[2] = molecular target: T2, Furin (108-574-Tev-Flag-His) enzyme (Homo sapiens, UniProt P09958); assay: Furin enzyme assay; type: biochemical
T2 construct: Furin (108-574-Tev-Flag-His) enzyme was expressed and purified from CHO cells; TEV cleavage site (C); FLAG (C); His (C); made in house; host or cells: CHO cells
Method in brief: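 CHO-expressed, purified furin construct at 40 pM in 100 mM HEPES pH7.5, 1 mM CaCl2, 0.005% Triton X-100. Eleven-point 1:3 series, 0.00017–10 μM final, incubated 2 h at room temperature and read on Envision. pXC50 from four-parameter fit.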

T1 sequence (P09958 108-794): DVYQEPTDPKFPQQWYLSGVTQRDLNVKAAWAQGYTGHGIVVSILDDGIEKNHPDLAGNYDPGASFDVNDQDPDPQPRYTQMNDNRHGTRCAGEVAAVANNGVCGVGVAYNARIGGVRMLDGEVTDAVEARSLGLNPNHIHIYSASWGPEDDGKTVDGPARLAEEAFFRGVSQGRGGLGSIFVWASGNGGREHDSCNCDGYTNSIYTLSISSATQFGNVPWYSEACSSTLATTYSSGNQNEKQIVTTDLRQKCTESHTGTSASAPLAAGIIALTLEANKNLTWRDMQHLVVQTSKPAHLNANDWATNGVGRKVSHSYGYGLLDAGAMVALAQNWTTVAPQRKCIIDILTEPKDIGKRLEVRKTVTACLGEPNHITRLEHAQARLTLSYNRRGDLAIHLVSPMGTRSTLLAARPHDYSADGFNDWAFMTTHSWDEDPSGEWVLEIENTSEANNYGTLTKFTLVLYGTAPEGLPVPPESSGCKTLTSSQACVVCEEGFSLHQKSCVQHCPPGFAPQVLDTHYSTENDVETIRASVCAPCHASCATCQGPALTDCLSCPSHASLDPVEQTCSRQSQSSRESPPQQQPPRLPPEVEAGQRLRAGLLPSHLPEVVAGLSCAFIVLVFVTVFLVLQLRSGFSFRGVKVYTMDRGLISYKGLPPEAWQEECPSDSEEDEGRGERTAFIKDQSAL
T2 sequence (P09958 108-574): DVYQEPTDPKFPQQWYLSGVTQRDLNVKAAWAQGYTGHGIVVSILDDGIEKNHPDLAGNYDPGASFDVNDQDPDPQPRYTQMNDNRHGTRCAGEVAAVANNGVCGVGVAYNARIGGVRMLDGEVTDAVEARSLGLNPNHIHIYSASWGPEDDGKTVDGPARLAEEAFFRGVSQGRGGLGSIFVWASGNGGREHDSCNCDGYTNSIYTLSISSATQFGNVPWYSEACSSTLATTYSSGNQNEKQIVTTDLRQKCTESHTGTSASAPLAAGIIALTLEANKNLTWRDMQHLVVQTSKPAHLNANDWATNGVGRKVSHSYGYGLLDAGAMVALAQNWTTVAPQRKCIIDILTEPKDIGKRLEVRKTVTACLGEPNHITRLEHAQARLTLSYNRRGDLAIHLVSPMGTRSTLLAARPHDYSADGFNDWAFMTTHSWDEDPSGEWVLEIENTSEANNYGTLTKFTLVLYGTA

Row | SMILES | EC50 [1] | furin enzyme pIC50 [2]
1 | O=C(O)CC1CCN(Cc2cc(Oc3cnc(N4CCNCC(O)C4)nc3)nc(-c3cc(Cl)cc(Cl)c3)c2)CC1 (centres unmarked) [Example 123, 2-(1-((2-(3,5-dichlorophenyl)-6-((2-(6-hydroxy-1,4-diazepan-1-yl)pyrimidin-5-yl)oxy)pyridin-4-yl)methyl)piperidin-4-yl)acetic acid] | 100 nM | 8.7
2 | NC1(CCO)CCN(c2ncc(Oc3cc(CN4CCC(CC(=O)O)CC4)cc(-c4cc(Cl)cc(Cl)c4)n3)cn2)CC1 [Example 124, 2-(1-((2-((2-(4-amino-4-(2-hydroxyethyl)piperidin-1-yl)pyrimidin-5-yl)oxy)-6-(3,5-dichlorophenyl)pyridin-4-yl)methyl)piperidin-4-yl)acetic acid] | 20 nM | 8.8
3 | CP(C)(=O)CC1CCN(Cc2cc(Oc3cnc(N4CCNCC4)nc3)nc(-c3cc(Cl)cc(Cl)c3)c2)CC1 [Example 125] | 50.1 nM | 8
4 | CC(CC(=O)O)C1CN(Cc2cc(Oc3cnc(N4CCN(C)CC4)nc3)nc(-c3cc(Cl)cc(Cl)c3)c2)C1 (centres unmarked) [Example 127, 3-(1-((2-(3,5-dichlorophenyl)-6-((2-(4-methylpiperazin-1-yl)pyrimidin-5-yl)oxy)pyridin-4-yl)methyl)azetidin-3-yl)butanoic acid] | 501 nM | 8.8
5 | CN1CCN(c2ncc(Oc3cc(CN4CCC(OCC(=O)O)C4)cc(-c4cc(Cl)cc(Cl)c4)n3)cn2)CC1 (centres unmarked) [Example 128, 2-((1-((2-(3,5-dichlorophenyl)-6-((2-(4-methylpiperazin-1-yl)pyrimidin-5-yl)oxy)pyridin-4-yl)methyl)pyrrolidin-3-yl)oxy)acetic acid] | 631 nM | 7.9
6 | CN1CCN(c2ncc(Oc3cc(CN4CC5CC(CC(=O)O)CC5C4)cc(-c4cc(Cl)cc(Cl)c4)n3)cn2)CC1 (centres unmarked) [Example 129, 2-(2-((2-(3,5-dichlorophenyl)-6-((2-(4-methylpiperazin-1-yl)pyrimidin-5-yl)oxy)pyridin-4-yl)methyl)octahydrocyclopenta[c]pyrrol-5-yl)acetic acid] | 79.4 nM | 8.2
7 | CN1CCN(c2ncc(Oc3cc(CN4CCC(CCC(=O)O)CC4)cc(-c4cc(Cl)cc(Cl)c4)n3)cn2)CC1 [Example 130, 3-(1-((2-(3,5-dichlorophenyl)-6-((2-(4-methylpiperazin-1-yl)pyrimidin-5-yl)oxy)pyridin-4-yl)methyl)piperidin-4-yl)propanoic acid] | 7.94 nM | 8.7
8 | CC(CC1CCN(Cc2cc(Oc3cnc(N4CCN(C)CC4)nc3)nc(-c3cc(Cl)cc(Cl)c3)c2)CC1)C(=O)O (centres unmarked) [Example 131, 3-(1-((2-(3,5-dichlorophenyl)-6-((2-(4-methylpiperazin-1-yl)pyrimidin-5-yl)oxy)pyridin-4-yl)methyl)piperidin-4-yl)-2-methylpropanoic acid] | 31.6 nM | 8.7
9 | O=C(O)CC1CCN(Cc2cc(Oc3cnc(N4CCCNCC4)nc3)nc(-c3cc(Cl)cc(Cl)c3)c2)CC1 [Example 132, 2-(1-((2-((2-(1,4-diazepan-1-yl)pyrimidin-5-yl)oxy)-6-(3,5-dichlorophenyl)pyridin-4-yl)methyl)piperidin-4-yl)acetic acid] | 63.1 nM | 8.8
10 | CN1CC2CN(c3ncc(Oc4cc(CN5CCC(CC(=O)O)CC5)cc(-c5cc(Cl)cc(Cl)c5)n4)cn3)CC2C1 (centres unmarked) [Example 133, 2-(1-((2-(3,5-dichlorophenyl)-6-((2-(5-methylhexahydropyrrolo[3,4-c]pyrrol-2(1H)-yl)pyrimidin-5-yl)oxy)pyridin-4-yl)methyl)piperidin-4-yl)acetic acid] | 39.8 nM | 8.3
11 | C[C@@H](CC1CCN(Cc2cc(Oc3cnc(N4CCN(C)CC4)nc3)nc(-c3cc(Cl)cc(Cl)c3)c2)CC1)C(=O)O [Example 134] | 25.1 nM | 9.5
12 | CN1CCN(c2ncc(Oc3cc(CN4CCC5(CC4)CN(C(=O)CO)C5)cc(-c4cc(Cl)cc(Cl)c4)n3)cn2)CC1 [Example 135, 1-(7-((2-(3,5-dichlorophenyl)-6-((2-(4-methylpiperazin-1-yl)pyrimidin-5-yl)oxy)pyridin-4-yl)methyl)-2,7-diazaspiro[3.5]nonan-2-yl)-2-hydroxyethanone] | 10 nM | 9.2

Further lines, results first:

Row | EC50 [1] | furin enzyme pIC50 [2] | SMILES
13 | 15.8 nM | 9.8 | CN1CCN(c2ccc(Oc3cc(CN4CC[C@@H]5[C@H](CC4)[C@H]5C(=O)O)cc(-c4cc(Cl)cc(Cl)c4)n3)cn2)CC1 [Example 136, (1R,7S,8r)-4-((2-(3,5-dichlorophenyl)-6-((6-(4-methylpiperazin-1-yl)pyridin-3-yl)oxy)pyridin-4-yl)methyl)-4-azabicyclo[5.1.0]octane-8-carboxylic acid]
14 | 7.94 nM | 9.1 | CC(O)CC1CCN(Cc2cc(Oc3cnc(N4CCN(C)CC4)nc3)nc(-c3cc(Cl)cc(Cl)c3)c2)CC1 (centres unmarked) [Example 138, 1-(1-((2-(3,5-dichlorophenyl)-6-((2-(4-methylpiperazin-1-yl)pyrimidin-5-yl)oxy)pyridin-4-yl)methyl)piperidin-4-yl)propan-2-ol]
15 | 10 nM | 9.3 | CN1CCN(c2ncc(Oc3cc(CN4CCC(CC(O)C(=O)O)CC4)cc(-c4cc(Cl)cc(Cl)c4)n3)cn2)CC1 (centres unmarked) [Example 139, 3-(1-((2-(3,5-dichlorophenyl)-6-((2-(4-methylpiperazin-1-yl)pyrimidin-5-yl)oxy)pyridin-4-yl)methyl)piperidin-4-yl)-2-hydroxypropanoic acid]
16 | 7.94 nM | 8.8 | CN1CCCN(c2ncc(Oc3cc(CN4CCC(OCC(=O)O)CC4)cc(-c4cc(Cl)cc(Cl)c4)n3)cn2)CC1 [Example 140, 2-((1-((2-(3,5-dichlorophenyl)-6-((2-(4-methyl-1,4-diazepan-1-yl)pyrimidin-5-yl)oxy)pyridin-4-yl)methyl)piperidin-4-yl)oxy)acetic acid]
17 | 5.01 nM | 8.6 | CN1CCN(c2ccc(Oc3cc(CN4CCC5(CC4)CNC(=O)OC5)cc(-c4cc(Cl)cc(Cl)c4)n3)cn2)CC1 [Example 141, 9-((2-(3,5-dichlorophenyl)-6-((6-(4-methylpiperazin-1-yl)pyridin-3-yl)oxy)pyridin-4-yl)methyl)-2-oxa-4,9-diazaspiro[5.5]undecan-3-one]
18 | 6.31 nM | 8.8 | CN1CCN(c2ncc(Oc3cc(CN4CCC(CC(N)=O)CC4)cc(-c4cc(Cl)cc(Cl)c4)n3)cn2)CC1 [Example 142, 2-(1-((2-(3,5-dichlorophenyl)-6-((2-(4-methylpiperazin-1-yl)pyrimidin-5-yl)oxy)pyridin-4-yl)methyl)piperidin-4-yl)acetamide]
19 | 20 nM | 8.4 | CN1CCN(c2ncc(Oc3cc(CN4CCC(OC5(C(=O)O)CC5)CC4)cc(-c4cc(Cl)cc(Cl)c4)n3)cn2)CC1 [Example 143, 1-((1-((2-(3,5-dichlorophenyl)-6-((2-(4-methylpiperazin-1-yl)pyrimidin-5-yl)oxy)pyridin-4-yl)methyl)piperidin-4-yl)oxy)cyclopropanecarboxylic acid]
